Measurements as given in ChEMBL document CHEMBL1151355, “The isolation of loliolide from an Indian Ocean opisthobranch mollusc” (1980).
In brackets after ≈: the same amount, converted by molar mass. Activity calls are given as the source filed them. No cut-off for these calls is given here.

Experiments:
P388 [1] = assay: Cytotoxicity against mouse P388 cells; assay type: functional; settings: read-out: ED50 (the source's name)
P388 [2] = assay: In vivo cytotoxicity against mouse P388 cells at 2.5 to 10 mg/kg; assay type: functional, organism-based
KB = assay: Cytotoxicity against human KB cells; assay type: functional; settings: read-out: ED50 (the source's name)

CC1(C)CC(O)C[C@@]2(C)OC(=O)C=C12 (stereo partly drawn)
EC50 (P388 [1]): 3.5 µg/mL (≈ 17.8 µM)
Activity (P388 [2]): inactive
EC50 (KB): 10 µg/mL (≈ 51 µM)
